The results in this text go back to ChEMBL document CHEMBL1150084, “Two Benzylated Dihydroflavonols from Cudrania tricuspidata” (1995).

≈ marks a conversion by molar mass, not a printed value.

Format in all cases: functional
Assay [1] has as its system MOLT-4F. In words: Cytotoxicity against human MOLT4F cells after 48 hrs by SRB assay. Conditions: read-out: ED50 (the source's name). Background: In SRB staining, fixed cells bind dye roughly in proportion to their protein.
Assay [2] deals with KM12. The assay can be described thus: Cytotoxicity against human KM12 cells after 48 hrs by SRB assay. Particulars: KM12, 48 h, read-out: ED50 (the source's name).
Assay [3] is described as follows: Cytotoxicity against human CRL1579 cells after 48 hrs by SRB assay. Conditions: read-out: ED50 (the source's name).
Assay [4] has as its system LOX IMVI. In words: Cytotoxicity against human LOXIMVI cells after 48 hrs by SRB assay. Conditions: read-out: ED50 (the source's name).
The test system of assay [5] is UO-31. The assay can be described thus: Cytotoxicity against human UO31 cells after 48 hrs by SRB assay. Particulars: UO-31, 48 h, read-out: ED50 (the source's name).

For `COc1cccc2c1C(=O)c1c(O)c3c(c(O)c1C2=O)C[C@@](O)(C(=O)CO)C[C@@H]3O[C@H]1C[C@H](N)[C@H](O)[C@H](C)O1` [DOXORUBICIN], the EC50 in assay [1] was 0.02 µg/mL (≈ 0.0368 µM); in assay [2] it was 0.11 µg/mL (≈ 0.202 µM); in assay [3], 0.16 µg/mL (≈ 0.294 µM); in assay [4], 0.13 µg/mL (≈ 0.239 µM); in assay [5] it was 0.3 µg/mL (≈ 0.552 µM).

As for `O=C1c2c(cc(O)c(Cc3ccc(O)cc3)c2O)O[C@H](c2ccc(O)cc2)[C@H]1O` [GERICUDRANIN E], the EC50 in assay [1] was 10.7 µg/mL (≈ 27.1 µM); in assay [2], 11.9 µg/mL (≈ 30.2 µM); in assay [3], 2.9 µg/mL (≈ 7.35 µM); in assay [4], 12.5 µg/mL (≈ 31.7 µM); in assay [5], 7.6 µg/mL (≈ 19.3 µM).

Consider `O=C1c2c(O)c(Cc3ccc(O)cc3)c(O)c(Cc3ccc(O)cc3)c2O[C@H](c2ccc(O)cc2)[C@H]1O` [GERICUDRANIN D], for which the EC50 stood at 8.9 µg/mL (≈ 17.8 µM) in assay [1]; 5 µg/mL (≈ 9.99 µM) in assay [2]; 9.5 µg/mL (≈ 19 µM) in assay [3]; 16.6 µg/mL (≈ 33.2 µM) in assay [4]; 5.2 µg/mL (≈ 10.4 µM) in assay [5].
